“Also recorded” adds a separate entry of the source. Like-named read-outs stand apart in the source and are kept apart here. Residues, ends and D or L forms follow the SMILES beside them. *: point of attachment. Cbz = O=C(OCc1ccccc1)*
Key:
[1] = test system: RBM20 dependent titin PEVK4-13 splicing reporter; experiment: Dual luciferase splicing reporter assay (DLR assay), RBM20 co-transfected; format: cell-based, human; settings: for IC50: Homo sapiens
Excerpt: The objective of our study was to identify and evaluate small molecules with the potential to modulate alternative splicing via an unbiased chemical high-throughput screening approach. Using transient transfection of a dual luciferase splicing reporter assay (DLR-assay) in HEK293.EBNA cells and a RBM20 expression construct, we investigated >34.000 substances for their effect on alternative exon exclusion from our RBM20 dependent titin PEVK4-13 splicing reporter. For the primary screen (pilot screen), each compound was tested at 10 μM (single point) and compared to an untreated control. Positive hits leading to differential exon usage (exceeding three standard deviations) were picked for independent validation in 9 serial 2-fold dilutions starting at 20 μM. Compounds that produced a concentration dependent effect were validated manually in the 96-well format and cytotoxicity was evaluated. To minimize the detection of false positives, we excluded compounds with structural homology to each luciferase’s natural substrate. To determine the EC50 of candidates we calculated dose response curves using a non-linear least-squares fitting routine available within the GNUPLOT package (accessible online: http://ic50.tk/index.html). […] Compounds that produced a concentration depend effect in the DLR-assay and altered the alternative transcript levels were regarded as validated alternative splicing modulators.
(§1) Cells transfected were at a confluency of 50-60%.
5000 HEK293.EBNA cells were seeded in clear bottom, white 384-well plates (Corning by Sigma-Aldrich Chemie GmbH, Munich, Germany) using an automated cell dispenser (Biotek, Bad Friedrichshall, Germany). 24 h after cell seeding the expression plasmids were delivered using a Freedom EVO® robotic workstation (TECAN, Maennedorf, Switzerland) equipped with a MultiChannel Arm™. Cells were transiently transfected with 45 ng plasmid DNA ([…] and 40 ng RBM20 or 24 ng of the negative control pcDNA3.1 ad 45 ng with bacterial expression plasmid pBSSK). Compounds were added to the plates the following day using the same robotic platform. Luciferase activity was determined using Dual-Glo® Luciferase Assay System (Promega GmbH, Mannheim, Germany) on an Infinite® M1000 Pro (TECAN, Maennedorf, Switzerland) plate reader around 60 hours post-transfection. Assay robustness was evaluated by calculation z’ scores using an online tool provided by the Screening Unit at FMP Berlin (http://www.screeningunit-fmp.net/tools/z-prime.php).

[2] = biological target: human serum albumin (HSA) (Homo sapiens, UniProt P02768); experiment: Surface plasmon resonance, immobilized human serum albumin (positive control); format: binding; settings: SPR, increasing concentrations
Chain of human serum albumin (HSA) (P02768 25-609): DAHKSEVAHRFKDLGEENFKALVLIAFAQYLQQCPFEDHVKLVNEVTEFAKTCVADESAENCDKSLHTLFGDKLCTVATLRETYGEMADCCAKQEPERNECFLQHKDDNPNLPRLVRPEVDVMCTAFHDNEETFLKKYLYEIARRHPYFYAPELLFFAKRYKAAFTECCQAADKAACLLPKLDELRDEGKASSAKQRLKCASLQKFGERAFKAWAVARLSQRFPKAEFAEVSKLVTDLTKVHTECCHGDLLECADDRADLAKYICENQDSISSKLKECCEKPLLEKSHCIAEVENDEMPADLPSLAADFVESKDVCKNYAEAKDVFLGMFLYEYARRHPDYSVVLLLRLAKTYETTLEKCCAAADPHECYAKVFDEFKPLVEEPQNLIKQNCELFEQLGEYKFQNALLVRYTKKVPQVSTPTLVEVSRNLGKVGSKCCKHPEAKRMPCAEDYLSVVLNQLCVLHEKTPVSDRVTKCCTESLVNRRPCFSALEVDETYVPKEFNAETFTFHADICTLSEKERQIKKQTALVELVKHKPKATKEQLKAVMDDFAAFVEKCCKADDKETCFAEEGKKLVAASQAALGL

[3] = biological target: T1, RNA recognition motif (RRM) of RBM20 (Homo sapiens, UniProt Q5T481); experiment: Surface plasmon resonance, immobilized RBM20-RRM; format: binding; settings: SPR, increasing concentrations
T1 construct: The RRM domain of RBM20 was cloned into pGEX-6P-1 bacterial expression plasmid; GST (N); made in house; host or cells: E. coli Rosetta 2 (DE3)
T1 sequence (Q5T481 518-593 limits assumed): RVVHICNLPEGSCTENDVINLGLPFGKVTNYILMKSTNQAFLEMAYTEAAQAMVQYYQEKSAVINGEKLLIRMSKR
Description: The RRM domain of RBM20 was cloned into pGEX-6P-1 bacterial expression plasmid and expressed in E. coli Rosetta™ 2 (DE3) (Novagen by Merck KgaA, Darmstadt, Germany). After purification of the recombinant protein using glutathione-sepharose (Sigma-Aldrich Chemie GmbH, Munich, Germany) the purified fraction was dialyzed o/n in reaction buffer (20 mM HEPES pH7, 200 mM NaCl, 1 mM MgCl2, 10% glycerol). The surface plasmon resonance study (SPR) was performed on a Biacore T100 (GE Healthcare Europe GmbH, Freiburg, Germany) using amine coupling. Chip surface was activated with 0.2 M EDC/0.4 M NHS. 30 μg of human serum albumin (HSA) (positive control) or RBM20-RRM were linked to the activated chip surface at pH 4.5 in 10 mM sodium acetate.

HEK293.EBNA cells = experiment: Cell viability, resazurin based staining (PrestoBlue); design: species or system human; settings: for IC50: Homo sapiens, HEK293-EBNA, HEK293 cells, 60 h post-transfection, RBM20/titin reporter transfected, read-out: Viability IC50
Excerpt: as §1

[4] = test system: HEK293 cells gene expression; experiment: Expression profiling of digitoxin treated HEK293 cells (GSE36058); format: cell-based, human; settings: digitoxin treated HEK293, GEO dataset GSE36058
Description: Expression profiling data (Gene Expression Omnibus—GSE36058) was analyzed using AltAnalyze [16]—gene expression cut-off = 1.0.

[5] = biological target: Na+/K+ ATPase human erythrocytes; design: method as in PMID 11072868; settings: cited from earlier work
[6] = test system: titin minigene TTN Ex241-43 transcripts; experiment: RT-PCR / RT-qPCR of transcripts from titin minigene TTN Ex241-43 (I96-98); format: cell-based, human; settings: HEK293 transfected with RBM20 and minigene I96-98
Excerpt: The objective of our study was to identify and evaluate small molecules with the potential to modulate alternative splicing via an unbiased chemical high-throughput screening approach. Using transient transfection of a dual luciferase splicing reporter assay (DLR-assay) in HEK293.EBNA cells and a RBM20 expression construct, we investigated >34.000 substances for their effect on alternative exon exclusion from our RBM20 dependent titin PEVK4-13 splicing reporter. For the primary screen (pilot screen), each compound was tested at 10 μM (single point) and compared to an untreated control. Positive hits leading to differential exon usage (exceeding three standard deviations) were picked for independent validation in 9 serial 2-fold dilutions starting at 20 μM. Compounds that produced a concentration dependent effect were validated manually in the 96-well format and cytotoxicity was evaluated. To minimize the detection of false positives, we excluded compounds with structural homology to each luciferase’s natural substrate. To determine the EC50 of candidates we calculated dose response curves using a non-linear least-squares fitting routine available within the GNUPLOT package (accessible online: http://ic50.tk/index.html). We evaluated the effect on splice activity on the RNA level by RT-qPCR of isoforms generated from a titin minigene containing TTN Ex241-43 (corresponding to TTN I-band exon I96-98) in the presence of the potential splice modulators. […]
Total RNA from HEK293.EBNA cells was extracted using RNeasy Micro Kit (Qiagen, Hilden, Germany) according to the manufacturer’s instructions. […] Quantitative RT-PCR was performed using SYBRGreen master mix (Applied Biosystems by Thermo Fisher Scientific Inc., USA) on a 7900 HT RT-cycler (Applied Biosystems by Thermo Fisher Scientific, Inc., USA). […] To quantification gene expression, we used the ΔΔCT method normalized to 18S or to the alternative transcripts generated from the splicing reporter. PSI values were calculated as ratio of unspliced and spliced reporter transcript. […]

RBM20 protein levels = experiment: RBM20 protein expression by immunoblot in co-transfected HEK293 cells; format: cell-based, human; settings: proteasome inhibitor added to digoxin treated HEK293 cells
Description: For immunodetection, HEK293.EBNA samples were harvested by rinsing them of the cell culture substrate using PBS at 37°C and subsequently used for downstream processing or snap frozen in liquid nitrogen. For protein extraction samples were suspended in RIPA buffer (50 mM Tris pH 8.0, 150 mM NaCl, 1% NP-40, 0.25% sodium deoxycholate, 1.0 mM EDTA; 0.1% SDS) and lysed via sonication with 20 bursts at 70% energy using a VialTweeter (Hielscher Ultrasonics GmbH, Teltow, Germany). Protein concentration was estimated after 20’ precipitation of cell debris at 13,000xg for 20 min at 4°C using BCA assay (Life Technologies GmbH, Darmstadt, Germany [23225]). Samples were kept cool at any time. Lysates were separated by SDS-PAGE [14] and blotted on PVDF membranes. Blotted antigens were probed with mouse anti-c-myc 9E10 ([M5546], Sigma-Aldrich Chemie GmbH, Munich, Germany) tag antibody at 1:2000 and detected using a sheep anti-mouse IgG-HRP (GE Healthcare Europe GmbH, Freiburg, Germany [NA9310V]) conjugate 1:5000 follow by visualization with AceGlow™ (VWR PEQL37) on a FUSION FX7 CCD camera system (Vilber Lourmat Deutschland GmbH, Eberhardzell, Germany).

[7] = HEK293, Table 1, read-out: IC50 Splicing HEK293 cells
[8] = dose response fit, head prints [μM], fits IC50 only
[9] = FLuc/RLuc ratio, HEK293 cells, 96-well format, inset table of figure, read-out: Splicing IC50

Q: With `CC(=O)O[C@H]1CC[C@@]2(C)[C@H](CC[C@@H]3[C@@H]2CC[C@]2(C)[C@@H](C4=CC(=O)OC4)CC[C@]32O)C1` [Digitoxigenin-3-acetate, Digitoxigenin 3-acetate] as the molecule, how does the “effect on RBM20-mediated titin splicing (in words)” value (from here on “effect … (in words)”) ([1]; DLR assay, HEK293) read?
A: independently validated

Q: For `C[C@]12CC[C@H](O)C[C@H]1CC[C@@H]1[C@@H]2CC[C@]2(C)[C@@H](C3=CC(=O)OC3)CC[C@]12O` [Digitoxigenin], which IC50 ([1]; HEK293, read-out: Splicing IC50) is on record?
A: 417 ± 99.5 nM

Q: What about the “binding to human serum albumin (HSA)” value [2] of the same molecule?
A: strongly bind

Q: And the “binding to RNA recognition motif (RRM) of RBM20” value [3]?
A: not the RNA recognition motif (RRM) of RBM20

Q: What about the IC50 (HEK293.EBNA cells) of the same molecule?
A: 468 ± 26.9 nM

Q: With `C[C@H]1O[C@@H](O[C@H]2[C@@H](O)C[C@H](O[C@H]3[C@@H](O)C[C@H](O[C@H]4CC[C@@]5(C)[C@H](CC[C@@H]6[C@@H]5CC[C@]5(C)[C@@H](C7=CC(=O)OC7)CC[C@]65O)C4)O[C@@H]3C)O[C@@H]2C)C[C@H](O)[C@@H]1O` [Digitoxin] as the molecule, how does the “proteins associated with RBM20 dependent splicing down regulated (of 39)” value [4] read?
A: 10

Q: And the “proteins associated with RBM20 dependent splicing upregulated (of 39)” value [4]?
A: 8

Q: What about the “effect … (in words)” value ([1]; DLR assay, HEK293) of the same molecule?
A: efficiently inhibit RBM20 mediated splicing

Q: What about the IC50 [1, 7] of the same molecule?
A: 56 nM

Q: What about the “Splicing Hill Coeff.” value [1, 8] of the same molecule?
A: 2.3582 ± 1.3110

Q: And the IC50 [5]?
A: 0.25 nM

Q: And the “binding to human serum albumin (HSA)” value [2]?
A: strongly bind

Q: And the “binding to RNA recognition motif (RRM) of RBM20” value [3]?
A: not the RNA recognition motif (RRM) of RBM20

Q: What about the IC50 (HEK293.EBNA cells) of the same molecule?
A: 66.3 ± 5.5 nM

Q: And the “Viability Hill Coeff.” value (HEK293.EBNA cells; [8])?
A: 2.0260 ± 0.2941

Q: And the “Viability Max” value (HEK293.EBNA cells; fit maximum of relative viability, head prints [μM], fits IC50 only)?
A: 1.0033 ± 0.0211

Q: For `C[C@]12CC[C@H](O)C[C@H]1CC[C@@H]1[C@@H]2CC[C@]2(C)[C@@H](C3=CC(=O)OC3)[C@@H](O)C[C@]12O` [Gitoxigenin], which “effect … (in words)” value ([1]; DLR assay, HEK293) is on record?
A: independently validated

Q: For `C[C@]12CCC(=O)C=C1CC[C@@H]1[C@@H]2[C@@H](O)C[C@@]2(C)[C@H]1CC[C@]2(O)C(=O)CO` [Hydrocortisone], which “effect … (in words)” value ([1]; DLR assay, HEK293) is on record?
A: did not interfere with splicing; also recorded: does not interfere with splicing activity; also recorded: do not interfere with RBM20 dependent splicing

Q: What does the source list for `COc1ccc(-c2cc(=O)c3c(O)cc(O)c(-c4cc(-c5cc(=O)c6c(O)cc(O)cc6o5)ccc4OC)c3o2)cc1` [Isoginkgetin]?
A: intron retention / mRNA maturation (in words) [6]: reduces alternative splicing and mRNA maturation; also recorded: affects mRNA maturation with increasing concentration; IC50 [1, 9]: 178000 nM; dose at which an effect on RBM20 dependent splicing and general mRNA maturation was found ([1]; only at the highest toxic dose): 30 µM; IC50 (HEK293.EBNA cells): 10800 ± 13100 nM

Q: With `CC(C)C[C@@H](C=O)NC(=O)[C@H](CC(C)C)NC(=O)[C@H](CC(C)C)NC(=O)OCc1ccccc1` [MG132] (Cbz-Leu-Leu-Leu-aldehyde) as the molecule, how does the “rescue of RBM20 protein expression under digoxin” value (RBM20 protein levels) read?
A: did not rescue RBM20 protein expression

Q: For `CO[C@H]1C[C@H](O[C@H]2CC[C@@]3(C)[C@H](CC[C@@H]4[C@@H]3CC[C@]3(C)[C@@H](C5=CC(=O)OC5)[C@@H](OC(C)=O)C[C@]43O)C2)O[C@@H](C)[C@@H]1O` [Oleandrin], which IC50 ([1]; DLR assay HEK293, read-out: splicing IC50) is on record?
A: 20 nM

Q: And the IC50 (HEK293.EBNA cells)?
A: 30.5 ± 1.2 nM

Q: With `C[C@@H]1O[C@@H](O[C@H]2C[C@@H](O)[C@]3(CO)[C@H]4[C@H](O)C[C@]5(C)[C@@H](C6=CC(=O)OC6)CC[C@]5(O)[C@@H]4CC[C@]3(O)C2)[C@H](O)[C@H](O)[C@H]1O` [Ouabain] as the molecule, how does the “effect … (in words)” value ([1]; DLR assay, HEK293) read?
A: suppresses RBM20 mediated titin splicing

Q: What about the IC50 [1, 7] of the same molecule?
A: 1670 nM

Q: And the IC50 [5]?
A: 0.56 nM

Q: For `C[C@]12CC[C@H]3[C@@H](CC[C@]4(O)C[C@@H](O)CC[C@]34CO)[C@@]1(O)CC[C@@H]2C1=CC(=O)OC1` [Strophanthidol], which IC50 [1, 9] is on record?
A: 3840 ± 443 nM

Q: What about the IC50 (HEK293.EBNA cells) of the same molecule?
A: 3070 ± 634 nM

Q: What does the source list for Cymarol?
A: effect on RBM20-mediated titin splicing (in words) ([1]; DLR assay, HEK293): independently validated; concentration at which effect on titin splicing starts ([1]; DLR assay, N = 4): < 100 nM
